Experimental data reported in ChEMBL document CHEMBL3046145, “Computational and experimental evaluation of ornithine derivatives as ornithine decarboxylase inhibitors” (Med Chem Res, 2009).
The source made the active and inactive calls. The rule behind the calls is not given here.

What was measured:
Ornithine decarboxylase = target: T1, Ornithine decarboxylase (Homo sapiens, UniProt P11926); experiment: Binding affinity to ODC (unknown origin)
T1 sequence (P11926 whole entry): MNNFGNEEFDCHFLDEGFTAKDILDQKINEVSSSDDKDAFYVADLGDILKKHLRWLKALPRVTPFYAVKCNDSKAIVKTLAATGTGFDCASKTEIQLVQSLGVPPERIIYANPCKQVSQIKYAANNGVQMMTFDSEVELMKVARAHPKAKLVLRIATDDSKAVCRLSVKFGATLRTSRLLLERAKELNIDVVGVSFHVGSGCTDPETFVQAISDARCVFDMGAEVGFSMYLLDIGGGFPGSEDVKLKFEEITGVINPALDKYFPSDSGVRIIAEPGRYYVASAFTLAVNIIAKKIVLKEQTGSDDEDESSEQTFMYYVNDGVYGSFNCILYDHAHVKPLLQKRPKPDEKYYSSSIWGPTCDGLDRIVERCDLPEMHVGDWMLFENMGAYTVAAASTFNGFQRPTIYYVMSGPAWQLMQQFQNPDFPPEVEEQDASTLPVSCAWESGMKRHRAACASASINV

Rattus norvegicus = species on record: Rattus norvegicus; experiment: Toxicity in Rattus norvegicus (rat); type: organism-based; conditions: in vivo
[1] = target: T2, Ornithine decarboxylase (Rattus norvegicus) (UniProt P09057); experiment: Inhibition of Rattus norvegicus Wistar (rat) rat liver ODC assessed as inhibition of 14CO2 release from L-[14C]ornithine
T2 sequence (whole entry): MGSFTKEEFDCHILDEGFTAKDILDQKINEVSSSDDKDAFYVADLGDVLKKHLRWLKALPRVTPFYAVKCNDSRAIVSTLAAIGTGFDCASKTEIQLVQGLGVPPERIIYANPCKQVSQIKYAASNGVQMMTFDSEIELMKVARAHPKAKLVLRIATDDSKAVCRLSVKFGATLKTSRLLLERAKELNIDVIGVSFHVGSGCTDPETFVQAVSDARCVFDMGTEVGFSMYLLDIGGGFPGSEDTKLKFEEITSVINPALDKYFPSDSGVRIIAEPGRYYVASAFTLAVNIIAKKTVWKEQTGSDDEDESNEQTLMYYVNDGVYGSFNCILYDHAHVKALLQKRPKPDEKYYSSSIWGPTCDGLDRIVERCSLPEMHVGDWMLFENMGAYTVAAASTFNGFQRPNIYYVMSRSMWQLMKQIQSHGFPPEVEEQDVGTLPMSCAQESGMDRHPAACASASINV

[2] = Toxicity in ip dosed Mus musculus CD1 (mouse) assessed as mortality; type: organism-based; conditions: in vivo

Work on NCCC[C@H](N)C(=O)O [ORNITHINE] yielded a Kd (Ornithine decarboxylase) of 250 µM.
Compound NCCC[C@H](NN)C(=O)O [ALPHA-HYDRAZINE ORNITHINE] has a Kd (Ornithine decarboxylase) of 0.5 µM.
For NCCC[C@](N)(C(=O)O)C(F)F [EFLORNITHINE, (S)-], the LD50 (Rattus norvegicus) was 300 µg.
In the case of N[C@@H](CCCNC(=O)CCl)C(=O)O, the inhibition [1] is reported as “Active”, the Kd (Ornithine decarboxylase) is reported as 2500 µM and the LD50 [2] is reported as 381 mg/kg.
Work on NCCC[C@@](N)(CF)C(=O)O yielded a Kd (Ornithine decarboxylase) of 75 µM.
